Our source for the EC50 and Kd values is patent US12091402B2 (Avilar Therapeutics, Inc., priority 2021, dated 2024).

Like-named read-outs stand apart in the source and are kept apart here. *1 amine or outer side, *2 acyl side, *3 side chain or, on linkers, in order; H or OH if unused. Where a SMILES comes first, the peptide text is derived from it. Bridges are numbered along the chain shown (N, C = ends). [ ]: non-standard residue; d: D form. The star is where a group is joined. X2 = O=C(CCOCC(COCCC(=O)NCCOCCOCCOCCOC[C@H]1OC[C@H](Nc2cncc(C(F)(F)F)n2)[C@@H](O)[C@H]1O)NCC(=O)*)NCCOCCOCCOCCOC[C@H]1OC[C@H](Nc2cncc(C(F)(F)F)n2)[C@@H](O)[C@H]1O; X1 = O=C([C@@H]1C[C@H](N[*:3])CN1[*:1])[*:2]

Assay [1] relates to HepG2 cells. Kind of assay: Cellular uptake assay of AF488-labeled antibody (HepG2). The assay is classed as cell-based. The procedure, abridged:
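HepG2 cells given 100 nM AF488-labeled human IgG or DNP antibody plus serial dilutions of matching degrader (0.1% DMSO final), 6 h at 37° C. Methanol-fixed, DAPI-stained and imaged by high-content analysis. Value is the fraction of AF488-positive cells over total DAPI-counted cells.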

The target in assay [2] is T1, ASGPR receptor on the cell surface (HepG2 cells) (Homo sapiens, UniProt P07306).
T1 construct: host or cells: HepG2
T1 sequence (P07306 1-291): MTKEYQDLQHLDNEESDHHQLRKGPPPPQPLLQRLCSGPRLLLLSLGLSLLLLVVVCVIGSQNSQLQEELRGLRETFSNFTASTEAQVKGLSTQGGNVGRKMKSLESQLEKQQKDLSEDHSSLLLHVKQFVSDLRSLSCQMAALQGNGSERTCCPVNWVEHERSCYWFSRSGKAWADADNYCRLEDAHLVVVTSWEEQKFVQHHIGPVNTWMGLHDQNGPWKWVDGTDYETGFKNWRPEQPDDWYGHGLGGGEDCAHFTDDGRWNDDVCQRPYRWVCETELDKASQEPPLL
T1 sequence (P07307 1-311 partner): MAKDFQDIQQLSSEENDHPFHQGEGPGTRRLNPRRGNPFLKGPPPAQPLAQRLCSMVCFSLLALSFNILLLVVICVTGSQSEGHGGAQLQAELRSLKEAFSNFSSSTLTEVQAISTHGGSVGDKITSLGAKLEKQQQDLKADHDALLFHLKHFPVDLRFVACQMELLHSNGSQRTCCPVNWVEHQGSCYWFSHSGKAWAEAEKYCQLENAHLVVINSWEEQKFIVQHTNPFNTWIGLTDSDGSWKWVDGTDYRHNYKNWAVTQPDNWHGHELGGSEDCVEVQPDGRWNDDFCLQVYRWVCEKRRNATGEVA
Description: Ternary complex formation assay (flow cytometry, HepG2). The class given is cell-based. The procedure, abridged: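 HepG2 cells (1×10^5/well) incubated 1 h at 4 °C with 100 nM AF488-labeled anti-human IgG plus serial IgG-based degrader, or 100 nM AF488 rabbit anti-DNP plus serial DNP-based degrader. After washing, cell-associated AF488 MFI read by flow cytometry; peak MFI marks optimal degrader concentration for ternary complex.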

Assay [3] has as its target T2, ASGPR (Homo sapiens, UniProt P07306).
T2 sequence (P07306 1-291): T1 sequence (P07306 1-291)
Description: Affinity to ASGPR by surface plasmon resonance (SPR). (Surface plasmon resonance follows binding to a sensor surface in real time, without labels.)
Description: Biotinylated ASGPR (20 μg/ml) was immobilized on SA sensor chips (GE Healthcare) at flow rate of 5 μl/min for 90 sec reaching an immobilization level ranging from 500-3000 resonance units (RU). The running buffer was 50 mM HEPES, pH7.5, 150 mM NaCl, 50 mM CaCl2), 0.01% P20, 3% DMSO. The concentration of compounds vary from 2 mM to 5 nM depending on Kd values. The compounds are diluted 2 or 3-fold with 8 concentration points. Solutions containing serially diluted compounds are injected at a flow rate of 40 μL/min for 150-300 sec followed by a 90-300 sec dissociation phase for each concentration. The surface was regenerated using 50 mM HEPES, pH 7.5, 150 mM NaCl, 5 mM EDTA, 0.01% P20, 3% DMSO.
Data was processed using the analysis software in Biacore 8K to perform background subtraction, double referencing, and solvent correction. Values of affinity expressed as the dissociation constants (Kd) were determined by fitting the steady state binding responses (RUs) as a function of the concentration ([Compound]) using the following equation: RU=RUmax/(KD+[Compound]), where RU max is the calculated maximal response. Where appropriate double-referenced data were fit to using a 1:1 binding model for kinetic analysis.

The target in assay [4] is IgG. Description: Affinity to IgG by surface plasmon resonance (SPR). The assay is classed as binding. Here is the method:
Immobilization levels ranging from 1000-1300 resonance units (RU) are obtained. The running buffer is 10 mM HEPES, pH 7.4, 400 mM NaCl, 0.005% P20, […].

Setting [5] is: HepG2 cells, read-out: Uptake EC50.
Setting [6] is: HepG2 cells, ternary complex formation, read-out: TCF EC50.
[7] abbreviates: HepG2 cells, 100 nM AF488-labeled antibody, 37° C. for 6 hours, class symbols, read-out: Uptake Assay EC50.
Setting [8] is: Biacore 8K, 25° C., IgG on CM5 chip, read-out: IgG SPR Binding Kd.

By EC50 is commonly meant the concentration giving half of the maximal effect. By Kd is commonly meant the equilibrium constant for the complex coming apart. For `CC(C)C[C@@H]1NC(=O)[C@H](Cc2cnc[nH]2)NC(=O)[C@H](Cc2c[nH]c3ccccc23)NC(=O)[C@H](C)NC(=O)[C@@H]2CSSC[C@H](NC(=O)[C@H](Cc3c[nH]c4ccccc34)NC(=O)[C@H](C(C)C)NC(=O)[C@H](CC(C)C)NC(=O)[C@H](CCC(=O)O)NC(=O)CNC1=O)C(=O)N[C@@H]([C@@H](C)O)C(=O)N1CCC[C@@H]1C(=O)N1C[C@@H](NC(=O)c3ccc4c(c3)C(=O)c3cc(C(=O)NC[C@H]5OC[C@H](Nc6cncc(C(F)(F)F)n6)[C@@H](O)[C@H]5O)ccc3-4)C[C@H]1C(=O)N[C@@H](CC(=O)O)C(=O)N2` [Compound 64], the figures for the EC50 in assay [1] (setting [5]) and in assay [2] (setting [6]) were 100 to 500 nM and under 100 nM, respectively. Also, the Kd is under 100 nM in assay [3] and under 100 nM in assay [4] (SPR, read-out: IgG KD).
With `CC(C)C[C@@H]1NC(=O)[C@H](Cc2cnc[nH]2)NC(=O)[C@H](Cc2c[nH]c3ccccc23)NC(=O)[C@H](C)NC(=O)[C@@H]2CSSC[C@H](NC(=O)[C@H](Cc3c[nH]c4ccccc34)NC(=O)[C@H](C(C)C)NC(=O)[C@H](CC(C)C)NC(=O)[C@H](CCC(=O)O)NC(=O)CNC1=O)C(=O)N[C@@H]([C@@H](C)O)C(=O)N1CCC[C@@H]1C(=O)N1C[C@@H](NC(=O)CCOCCNC(=O)CCCc3cn(C[C@@]45CO[C@@H](O4)[C@H](Nc4nc(Cl)ns4)[C@@H](O)[C@H]5O)nn3)C[C@H]1C(=O)N[C@@H](CC(=O)O)C(=O)N2` [Compound 7], the EC50 in assay [1] (setting [7]) was 100 to 500 nM; in assay [2], under 100 nM. Moreover, the equilibrium dissociation constant (Kd) in assay [3] and in assay [4] (setting [8]) was under 100 nM each time.
In the case of `CC(C)C[C@@H]1NC(=O)[C@H](Cc2c[nH]cn2)NC(=O)[C@H](Cc2c[nH]c3ccccc23)NC(=O)[C@H](C)NC(=O)[C@@H]2CSSC[C@H](NC(=O)[C@H](Cc3c[nH]c4ccccc34)NC(=O)[C@H](C(C)C)NC(=O)[C@H](CC(C)C)NC(=O)[C@H](CCC(=O)O)NC(=O)CNC1=O)C(=O)N[C@@H]([C@@H](C)O)C(=O)N1CCC[C@@H]1C(=O)N1C[C@@H](NC(=O)CCOCCOCCOCCOCCNC(=O)CCCc3cn(CCCCCC(=O)NC(COCCC(=O)NCCOCCOCCOCCOC[C@@]45CO[C@@H](O4)[C@H](NC(=O)C(F)(F)F)[C@@H](O)[C@H]5O)COCCC(=O)NCCOCCOCCOCCOC[C@@]45CO[C@@H](O4)[C@H](NC(=O)C(F)(F)F)[C@@H](O)[C@H]5O)nn3)C[C@H]1C(=O)N[C@@H](CC(=O)O)C(=O)N2` [Compound 94], the EC50 in assay [1] (setting [5]) and in assay [2] (setting [6]) was under 100 nM throughout. Besides, the Kd in assay [3] was under 100 nM; in assay [4] (SPR, read-out: IgG KD) it was under 100 nM.
As to `O=C(CCOCC(COCCC(=O)NCCOCCOCCOCCOC[C@H]1OC[C@H](Nc2nccc(C(F)(F)F)n2)[C@@H](O)[C@H]1O)NC(=O)COCCOCCOCCNc1ccc([N+](=O)[O-])cc1[N+](=O)[O-])NCCOCCOCCOCCOC[C@H]1OC[C@H](Nc2nccc(C(F)(F)F)n2)[C@@H](O)[C@H]1O` [Compound 32, 3,3′-((2-(2-(2-(2-(2-((2,4-dinitrophenyl)amino)ethoxy)ethoxy)ethoxy)acetamido)propane-1,3-diyl)bis(oxy))bis(N-(1-((2R,3R,4R,5S)-3,4-dihydroxy-5-((4-(trifluoromethyl)pyrimidin-2-yl)amino)tetrahydro-2H-pyran-2-yl)-2,5,8,11-tetraoxatridecan-13-yl)propanamide)], the EC50 in assay [1] (setting [5]) was under 100 nM; in assay [1] (Homo sapiens, HepG2, 6 h, read-out: Uptake Assay EC50 (nM)) it was under 100 nM; in assay [2] (setting [6]), under 100 nM; in assay [2] (Ternary Complex EC50 (nM), HepG2 cells, 100 nM AF488-labeled antibody, 1 hour at 4° C., class symbols) it was under 100 nM. Further, the Kd in assay [3] is under 100 nM; in assay [4] (SPR, read-out: IgG KD), under 100 nM.
Take `CC(C)C[C@@H]1NC(=O)[C@H](Cc2c[nH]cn2)NC(=O)[C@H](Cc2c[nH]c3ccccc23)NC(=O)[C@H](C)NC(=O)[C@@H]2CSSC[C@H](NC(=O)[C@H](Cc3c[nH]c4ccccc34)NC(=O)[C@H](C(C)C)NC(=O)[C@H](CC(C)C)NC(=O)[C@H](CCC(=O)N(C)C)NC(=O)CNC1=O)C(=O)N[C@@H]([C@@H](C)O)C(=O)N1CCC[C@@H]1C(=O)N1C[C@@H](NC(=O)CNC(COCCC(=O)NCCOCCOCCOCCOC[C@H]3OC[C@H](Nc4cncc(C(F)(F)F)n4)[C@@H](O)[C@H]3O)COCCC(=O)NCCOCCOCCOCCOC[C@H]3OC[C@H](Nc4cncc(C(F)(F)F)n4)[C@@H](O)[C@H]3O)C[C@H]1C(=O)N[C@@H](CC(=O)O)C(=O)N2` [Compound 75]: the EC50 in assay [1] (setting [5]) and in assay [2] was under 100 nM each time. Besides, the dissociation constant (Kd) was under 100 nM in assay [3] and under 100 nM in assay [4] (SPR, read-out: IgG KD).
For `CC(C)C[C@@H]1NC(=O)[C@H](Cc2c[nH]cn2)NC(=O)[C@H](Cc2c[nH]c3ccccc23)NC(=O)[C@H](C)NC(=O)[C@@H](NC(=O)[C@H](CC(=O)O)NCCOCCOCCOCCOCCNC(=O)CCCc2cn(CCCCCC(=O)NC(COCCC(=O)NCCOCCOCCOCCOC[C@H]3OC[C@H](Nc4nccc(C(F)(F)F)n4)[C@@H](O)[C@H]3O)COCCC(=O)NCCOCCOCCOCCOC[C@H]3OC[C@H](Nc4nccc(C(F)(F)F)n4)[C@@H](O)[C@H]3O)nn2)CSSC[C@@H](C(=O)N[C@H](C(N)=O)[C@@H](C)O)NC(=O)[C@H](Cc2c[nH]c3ccccc23)NC(=O)[C@H](C(C)C)NC(=O)[C@H](CC(C)C)NC(=O)[C@H](CCC(=O)O)NC(=O)CNC1=O` [Compound 10], the EC50 in assay [1] (read-out: Uptake Assay EC50) and in assay [2] was under 100 nM in each case. The Kd in assay [3] and in assay [4] (read-out: IgG SPR Binding Kd) was under 100 nM each time.
Turning to `CC(C)C[C@@H]1NC(=O)[C@H](Cc2c[nH]cn2)NC(=O)[C@H](Cc2c[nH]c3ccccc23)NC(=O)[C@H](C)NC(=O)[C@@H]2CSSC[C@H](NC(=O)[C@H](Cc3c[nH]c4ccccc34)NC(=O)[C@H](C(C)C)NC(=O)[C@H](CC(C)C)NC(=O)[C@H](CCC(=O)O)NC(=O)CNC1=O)C(=O)N[C@@H]([C@@H](C)O)C(=O)N1CCC[C@@H]1C(=O)N1C[C@@H](NC(=O)CCOCCOCCOCCNC(=O)CCCc3cn(CCCCCC(=O)NC(COCCC(=O)NCCOCCOCCOCCOC[C@@]45CO[C@@H](O4)[C@H](Nc4nc(Cl)ns4)[C@@H](O)[C@H]5O)COCCC(=O)NCCOCCOCCOCCOC[C@@]45CO[C@@H](O4)[C@H](Nc4nc(Cl)ns4)[C@@H](O)[C@H]5O)nn3)C[C@H]1C(=O)N[C@@H](CC(=O)O)C(=O)N2` [Compound 8], the EC50 in assay [1] (setting [7]) and in assay [2] was under 100 nM throughout. For the same compound, the Kd in assay [3] and in assay [4] (setting [8]) was under 100 nM throughout.
As for `CC(C)C[C@@H]1NC(=O)[C@H](C)NC(=O)CNC(=O)[C@H](CC(C)C)NC(=O)[C@H](Cc2cnc[nH]2)NC(=O)[C@H](Cc2c[nH]c3ccccc23)NC(=O)[C@H](C)NC(=O)[C@@H]2CSSC[C@H](NC(=O)[C@H](Cc3c[nH]c4ccccc34)NC(=O)[C@H](C(C)C)NC1=O)C(=O)N[C@@H]([C@@H](C)O)C(=O)N1CCC[C@@H]1C(=O)N1C[C@@H](NC(=O)CNC(COCCC(=O)NCCOCCOCCOCCOC[C@H]3OC[C@H](Nc4cncc(C(F)(F)F)n4)[C@@H](O)[C@H]3O)COCCC(=O)NCCOCCOCCOCCOC[C@H]3OC[C@H](Nc4cncc(C(F)(F)F)n4)[C@@H](O)[C@H]3O)C[C@H]1C(=O)N[C@@H](C)C(=O)N2` [Compound 76] (cyclo(ACAWHLGALVWCT[dP][X1](X2)); disulfide 2-12), the EC50 is under 100 nM in assay [1] (setting [5]) and under 100 nM in assay [2] (TCF EC50, HepG2 cells, ternary complex formation). Moreover, the Kd is under 100 nM in assay [3] and under 100 nM in assay [4] (SPR, read-out: IgG KD).
